The assay deals with T1, angiotensin I-converting enzyme (ACE) (Oryctolagus cuniculus, UniProt P12822).
T1 construct: purchased Sigma Chemical Co. (St. Louis, MO, USA)
T1 sequence (P12822 34-1310): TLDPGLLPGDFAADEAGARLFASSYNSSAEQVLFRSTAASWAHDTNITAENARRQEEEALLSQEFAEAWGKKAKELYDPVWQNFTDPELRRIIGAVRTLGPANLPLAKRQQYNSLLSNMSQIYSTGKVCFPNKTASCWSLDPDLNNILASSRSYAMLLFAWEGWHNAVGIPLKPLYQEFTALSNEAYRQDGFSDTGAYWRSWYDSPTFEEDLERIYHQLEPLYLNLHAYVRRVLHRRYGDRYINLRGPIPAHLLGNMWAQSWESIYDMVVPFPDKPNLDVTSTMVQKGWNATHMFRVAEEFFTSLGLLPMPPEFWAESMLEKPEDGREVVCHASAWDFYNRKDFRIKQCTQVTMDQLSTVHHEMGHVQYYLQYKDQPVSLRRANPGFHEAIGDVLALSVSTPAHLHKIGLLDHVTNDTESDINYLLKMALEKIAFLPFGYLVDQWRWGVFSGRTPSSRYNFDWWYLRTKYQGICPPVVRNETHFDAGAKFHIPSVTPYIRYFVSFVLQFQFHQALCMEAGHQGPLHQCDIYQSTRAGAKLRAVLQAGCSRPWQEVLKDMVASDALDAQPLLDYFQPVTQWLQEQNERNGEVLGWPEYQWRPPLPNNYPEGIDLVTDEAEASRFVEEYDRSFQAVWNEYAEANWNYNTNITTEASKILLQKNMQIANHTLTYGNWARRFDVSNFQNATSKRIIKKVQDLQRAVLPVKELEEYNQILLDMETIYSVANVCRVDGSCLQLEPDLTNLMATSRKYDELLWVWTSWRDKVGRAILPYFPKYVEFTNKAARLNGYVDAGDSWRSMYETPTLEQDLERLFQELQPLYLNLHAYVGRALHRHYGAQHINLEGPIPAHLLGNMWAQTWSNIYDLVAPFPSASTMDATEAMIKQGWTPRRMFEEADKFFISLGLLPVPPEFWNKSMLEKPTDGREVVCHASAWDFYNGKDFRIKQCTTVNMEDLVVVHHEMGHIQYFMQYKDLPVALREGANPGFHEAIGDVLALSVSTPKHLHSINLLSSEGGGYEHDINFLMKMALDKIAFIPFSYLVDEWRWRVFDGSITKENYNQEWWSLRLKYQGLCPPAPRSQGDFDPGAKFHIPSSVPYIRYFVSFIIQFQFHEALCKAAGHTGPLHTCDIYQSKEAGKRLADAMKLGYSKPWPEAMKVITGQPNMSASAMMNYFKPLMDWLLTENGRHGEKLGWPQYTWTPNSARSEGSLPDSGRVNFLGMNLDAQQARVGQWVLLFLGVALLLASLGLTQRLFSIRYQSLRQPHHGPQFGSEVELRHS
The assay can be described thus: ACE inhibitory activity assay (HHL substrate, HPLC detection of hippuric acid). The format is biochemical. Particulars: chemically synthesized peptides. As to the method:
ACE inhibitory activity was measured as previously described by Cushman and Cheung with minor modifications. A 10 μL sample solution (50 mM borate, pH 8.3) was added to 30 μL 2.5 mM HHL solution and incubated for 5 min at 37 °C. Subsequently, 20 μL of 0.1 U/mL ACE solution (50 mM borate, 0.3 M NaCl, pH 8.3) was added and the mixture was incubated at 37 °C for 60 min. The reaction was terminated by adding 70 μL of 1 M HCl. A blank sample of buffer alone was used as a negative control. Samples were filtered through a 0.45 μm nylon syringe filter and then separated on a C18 column (4.6 mm × 150 mm, 5 μm). HA and HHL were detected by absorbance at 228 nm. The column was eluted at a flow rate of 0.8 mL/min using a mobile phase composed of (A) 0.05% TFA in water and (B) 0.05% TFA in acetonitrile. The elution was carried out using a gradient of 10%–60% B in the first 10 min followed by 60%–10% B in the next 2 min. HA was quantified by integration of peak areas (A). Percent ACE inhibition was calculated according to the following equation: [drawing 1] (1)
The ACE inhibitory peptides identified by nano-LC MS/MS were synthesized using the solid phase method and purified by HPLC by GenScript Corporation (Nanjing, China). The ACE inhibitory activity of these chemically synthesized peptides was determined as described in Section 3.3.

Where “and” joins values, the source holds several entries; their conditions need not be identical. Equal entries are not always repeated. Residues, ends and D or L forms follow the SMILES beside them. No end group written: not given here.

In general, IC50 refers to the concentration at which inhibition is half-maximal. `N=C(N)NCCC[C@H](NC(=O)[C@H](CCCCN)NC(=O)[C@@H](N)Cc1ccccc1)C(=O)O` [FKR] (H-Phe-Lys-Arg-OH) had an IC50 of 77.9 µM.

Compound `CC(C)C[C@H](NC(=O)[C@H](C)NC(=O)[C@@H](N)CC(C)C)C(=O)N[C@@H](CCCNC(=N)N)C(=O)O` [LALR] (H-LALR-OH) yielded an IC50 of 1270 µM. This IC50 lies about 16-fold higher than the previous one.

As to `CC(C)C[C@H](N)C(=O)N[C@@H](CCC(=O)O)C(=O)NCC(=O)N[C@@H](CCCNC(=N)N)C(=O)O` [LEGR] (H-LEGR-OH), the IC50 came to 1090 µM.

As for `CC(C)C[C@H](N)C(=O)N[C@@H](Cc1ccccc1)C(=O)N[C@@H](CCCNC(=N)N)C(=O)O` [LFR] (H-Leu-Phe-Arg-OH), the IC50 came to 31.8 µM.

Turning to `CC(C)C[C@H](NC(=O)[C@H](CCCCN)NC(=O)[C@@H](N)CC(C)C)C(=O)N1CCC[C@H]1C(=O)O` [LKLP] (H-LKLP-OH), the IC50 is 367 µM.

`CC(C)C[C@H](NC(=O)[C@H](CC(C)C)NC(=O)[C@@H](N)CC(C)C)C(=O)N[C@@H](CCCNC(=N)N)C(=O)O` [LLLR] (H-LLLR-OH) had an IC50 of 1000 µM.

In the case of `CC(C)C[C@H](NC(=O)[C@@H](N)CC(C)C)C(=O)N[C@@H](CCCNC(=N)N)C(=O)N[C@@H](Cc1c[nH]cn1)C(=O)O` [LLRH] (H-LLRH-OH), the IC50 was 308 µM.

Turning to `CC(C)C[C@H](N)C(=O)N[C@@H](CCCNC(=N)N)C(=O)O` [LR], the IC50 was determined as 158 µM.

Compound `CC(C)C[C@H](N)C(=O)N[C@H](C(=O)N[C@@H](CCCCN)C(=O)N[C@@H](Cc1ccccc1)C(=O)O)C(C)C` [LVKF] (H-LVKF-OH) gave an IC50 of 24.6 µM.

In the case of `NC(N)=NCCC[C@H](NC(=O)[C@@H](N)CCCN=C(N)N)C(=O)O` [RR] (H-Arg-Arg-OH), the 50% inhibitory concentration (IC50) came out at 482 µM.

`CC(C)[C@H](N)C(=O)N[C@@H](CCCCN)C(=O)N[C@@H](Cc1ccccc1)C(=O)O` [VKF] (H-Val-Lys-Phe-OH) showed an IC50 of 10.4 µM.

For HFEAMR [HFEAMR], inhibition was half-maximal at 192 µM (IC50). This IC50 is about 18-fold higher than that of the compound before.

LASPTM [LASPTM] yielded an IC50 of 59.8 µM. This IC50 lies about 3.2-fold lower than the previous one.

LFVAAP [LFVAAP] registered an IC50 of 70.2 µM.

As to LGALPF [LGALPF], the IC50 was 2690 µM.

Compound LGECGGR [LGECGGR] had an IC50 of 233 µM.

In the case of LLHSPP [LLHSPP], 222 µM corresponded to half-maximal inhibition (IC50).

The compound LLMPK [LLMPK] gave an IC50 of 686 µM.

For the compound LYHVL [LYHVL], the midpoint of inhibition, the IC50, lay at 17.5 µM.

MPFLFK [MPFLFK] showed an IC50 of 92.4 µM.

In turn, PLFPK [PLFPK] came in with an IC50 of 41.3 µM.

For VFKAF [VFKAF], the IC50 stood at 100 µM.

As to VVCVPW [VVCVPW], the IC50 was 4.07 µM and 4.1 µM.

Source of the values: PMC4113806, “Characterization of ACE Inhibitory Peptides from Mactra veneriformis Hydrolysate by Nano-Liquid Chromatography Electrospray Ionization Mass Spectrometry (Nano-LC-ESI-MS) and Molecular Docking” (Marine Drugs, 2014).
